Target: ATX (human His-tagged) (Homo sapiens (Human), UniProt Q13822)
Assay: Human ATX enzyme inhibition assay (fluorescence quenching, MR121 substrate)
Assay type: biochemical
Settings: 30 nM ATX, 1 μM MR121 substrate, 30° C., pH 8.0
In short: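 Fluorescence quenching assay with MR121/tryptophan-labelled substrate analogue in Tris-HCl buffer (140 mM NaCl, CaCl2, MgCl2, 0.01% Triton X-100, pH 8.0). Serially diluted compounds were preincubated 15 min at 30 °C with 30 nM ATX (final), then 1 µM substrate (final) added and incubated 15 min at 30 °C.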

| Molecule | IC50 [nM] |
| --- | --- |
| CS(=O)(=O)c1cc(C(=O)N2C[C@@H]3[C@H]4CN(C(=O)c5ccccc5)C[C@H]4[C@@H]3C2)cnc1OCC(F)(F)F [Example 1.111, {(3aS,3bS,6aR,6bR)-5-[5-methanesulfonyl-6-(2,2,2-trifluoro-ethoxy)-pyridine-3-carbonyl]-octahydro-cyclobuta[1,2-c;3,4-c′]dipyrrol-2-yl}-phenyl-methanone] | 330 |
| O=C(OCc1ccc(OC(F)(F)F)cc1)N1C[C@@H]2[C@H](C1)[C@H]1CN(C(=O)c3ccc4[nH]nnc4c3)C[C@@H]21 [Example 2, (3aR,3bS,6aR,6bS)-5-(1H-Benzotriazole-5-carbonyl)-octahydro-cyclobuta[1,2-c;3,4-c′]dipyrrole-2-carboxylic acid 4-trifluoromethoxy-benzyl Ester] | 14 |
| O=C(c1ccc2[nH]nnc2c1)N1C[C@@H]2[C@H](C1)[C@H]1CN(S(=O)(=O)c3ccc(-c4ccc(F)cc4)cc3)C[C@@H]21 [Example 3, (1H-Benzotriazol-5-yl)-[(3aS,3bR,6aS,6bR)-5-(4′-fluoro-biphenyl-4-sulfonyl)-octahydro-cyclobuta[1,2-c;3,4-c′]dipyrrol-2-yl]-methanone] | 173 |
| O=C(c1ccc2[nH]nnc2c1)N1C[C@@H]2[C@H](C1)[C@H]1CN(C(=O)N3CCc4cc(C(F)(F)F)ccc4C3)C[C@@H]21 [Example 4, [(3aR,3bS,6aR,6bS)-5-(1H-Benzotriazole-5-carbonyl)-octahydro-cyclobuta[1,2-c;3,4-c′]dipyrrol-2-yl]-(6-trifluoromethyl-3,4-dihydro-1H-isoquinolin-2-yl)-methanone] | 70 |
| (1H-benzotriazol-yl)-{(3aS,3bS,6aR,6bR)-5-[5-bromo-2-methyl-6-(2,2,2-trifluoro-ethoxy)-pyridine-3-carbonyl]-octahydro-cyclobuta[1,2-c;3,4-c′]dipyrrol-2-yl}-methanone [Example 1.103] | 27 |

The remaining lines, values ahead:

| IC50 [nM] | Molecule |
| --- | --- |
| 32.5 | CCOc1cc(C(=O)N2C[C@@H]3[C@H](C2)[C@H]2CN(C(=O)c4ccc5[nH]nnc5c4F)C[C@@H]32)nc2ccccc12 [Example 1.110, [(3aS,3bR,6aS,6bR)-5-(4-ethoxy-quinoline-2-carbonyl)-octahydro-cyclobuta[1,2-c;3,4-c′]dipyrrol-2-yl]-(4-fluoro-1H-benzotriazol-5-yl)-methanone] |
| 4.5 | O=C(OCc1cc(Cl)cc(Cl)c1)N1C[C@@H]2[C@H](C1)[C@H]1CN(C(=O)c3ccc4[nH]nnc4c3)C[C@@H]21 [Example 2.001, (3aR,3bS,6aR,6bS)-5-(1H-Benzotriazole-5-carbonyl)-octahydro-cyclobuta[1,2-c;3,4-c′]dipyrrole-2-carboxylic Acid 3,5-dichloro-benzyl Ester] |
| 232 | O=C(c1ccc2[nH]nnc2c1)N1C[C@@H]2[C@H](C1)[C@H]1CN(S(=O)(=O)c3ccc4cc(Cl)ccc4c3)C[C@@H]21 [Example 3.001, (1H-Benzotriazol-5-yl)-[(3aS,3bR,6aS,6bR)-5-(6-chloro-naphthalene-2-sulfonyl)-octahydro-cyclobuta[1,2-c;3,4-c′]dipyrrol-2-yl]-methanone] |

Reference: US10849881B2, “Octahydro-cyclobuta[1,2-c;3,4-c′]dipyrrol-2-yl” (Hoffmann-La Roche Inc., priority 2013, dated 2020)
